Structures can show the parent of a compound that is named as a salt. Where two headings read alike, the source gives them in different places.
Key:
[1] = system: rats with the cholesterol diet; experiment: in vivo test in rats with the cholesterol diet, 10 day treatments (Table 2); conditions: rat; for LDL + VLDL percentile change / Serum cholesterol percentile change / triglyceride percentile change / HDL cholesterol percentile change: 10 day treatment
Method: […] (Schurr, P. E.; Schultz, J. R., Day, D. E.; Atherosclerosis Drug Discovery Ed.: C. E. Day, Plenum, New York 215 (1976) and Acta Pharm. Hung., 49, 182. (1979) During this time the total cholesterol level of the serum increased with 200-250% compared to the normal level, while the amount of the HDL chloesterol diminished by 45-50%. Groups consisting of six animals were formed. […] Then after a 18 hour starving the animals were bled to death under etheric narcosis on the 8th day. The blood samples were centrifuged and the serum total cholesterol and the HDL cholesterol were determined by Backmann enzymatic test, while the triglyceride concentration of the serum was determined by Van Handel's method (J. Lab.: Clin. Med. 41, 486 (1953). The amount of the LDL+VLDL was measured by manganese precipitation turbidimetrically (Schurr, P. E., Schulz, J. R., Day, C. E.: Atherosclerosis Drug Discovery Ed.: C. E. Day, Plenum Press, New York 215 (1976). The antiaggreagtion activity was measured in vitro on human plasm being rich in thrombocytes by a Chrono-log aggregometer. The aggregation was induced by ADP, adrenaline, collagen and arachidonic acid. […]. The lipidperoxidation was induced by N-ethyl-alenicimide (Arzneimittel-Forschung 29, 981 (1979).
The affect of compound no. 0202479 to the rats with the
cholesterol diet in 10 day treatments

[2] = system: human plasm being rich in thrombocytes; experiment: in vitro antiaggregation activity (Chrono-log aggregometer; ADP, adrenaline, collagen, arachidonic acid); format: cell-based; conditions: for inhibition at 250 µM / inhibition at 500 µM / inhibition at 1000 µM: Homo sapiens
Excerpt: Whistar hannover male rats weighing 140-160 g were fed for 7 days with a rat fodder supplemented with 1.5% of cholesterol, 0.5% of sodium cholate and 5% of solid fat. (Schurr, P. E.; Schultz, J. R., Day, D. E.; Atherosclerosis Drug Discovery Ed.: C. E. Day, Plenum, New York 215 (1976) and Acta Pharm. Hung., 49, 182. (1979) During this time the total cholesterol level of the serum increased with 200-250% compared to the normal level, while the amount of the HDL chloesterol diminished by 45-50%. Groups consisting of six animals were formed. The compounds of the invention were administered orally starting on the fourth day of the addition of the cholesterol fodder and it was continued by the end of the experiments, by the seventh day, in one or two doses. Then after a 18 hour starving the animals were bled to death under etheric narcosis on the 8th day. The blood samples were centrifuged and the serum total cholesterol and the HDL cholesterol were determined by Backmann enzymatic test, while the triglyceride concentration of the serum was determined by Van Handel's method (J. Lab.: Clin. Med. 41, 486 (1953). The amount of the LDL+VLDL was measured by manganese precipitation turbidimetrically (Schurr, P. E., Schulz, J. R., Day, C. E.: Atherosclerosis Drug Discovery Ed.: C. E. Day, Plenum Press, New York 215 (1976). The antiaggreagtion activity was measured in vitro on human plasm being rich in thrombocytes by a Chrono-log aggregometer. The aggregation was induced by ADP, adrenaline, collagen and arachidonic acid. The determination of the inhibition of the lipidperoxidation was carried out by thiobarbituric acidic method with the aid of washed human thrombocyte suspension. The lipidperoxidation was induced by N-ethyl-alenicimide (Arzneimittel-Forschung 29, 981 (1979).

[3] = system: washed human thrombocyte suspension; experiment: inhibition of lipidperoxidation, thiobarbituric acidic method; format: cell-based; conditions: induced by N-ethyl-alenicimide, read-out: medium inhibiting concentration, lipidperoxidation
Method: Whistar hannover male rats weighing 140-160 g were fed for 7 days with a rat fodder supplemented with 1.5% of cholesterol, 0.5% of sodium cholate and 5% of solid fat. […] The blood samples were centrifuged and the serum total cholesterol and the HDL cholesterol were determined by Backmann enzymatic test, while the triglyceride concentration of the serum was determined by Van Handel's method (J. Lab.: Clin. Med. 41, 486 (1953). The amount of the LDL+VLDL was measured by manganese precipitation turbidimetrically (Schurr, P. E., Schulz, J. R., Day, C. E.: Atherosclerosis Drug Discovery Ed.: C. E. Day, Plenum Press, New York 215 (1976). The antiaggreagtion activity was measured in vitro on human plasm being rich in thrombocytes by a Chrono-log aggregometer. The aggregation was induced by ADP, adrenaline, collagen and arachidonic acid. […]

[4] = acute toxicity, oral, mice; design: species or system male and female mice; conditions: mouse, in vivo, observed 14 days
Excerpt: (§1) The acute toxicity of this compound was examined on male and female mice and rats by oral administration.

[5] = acute toxicity, oral, rats; design: species or system male and female rats; conditions: rat, in vivo, observed 14 days
Excerpt: as §1

[6] = ADP induced, read-out: Aggregation inhibition, ADP
[7] = adrenaline induced, read-out: Aggregation inhibition, Adrenaline
[8] = collagen induced, read-out: Aggregation inhibition, Collagene

SMILES: C=CCSc1nc2ccc(Cc3ccccc3)cc2[nH]1 [compound 0202479, 5-Benzyl-2-(2-propenylthio)-benzimidazole hydrobromide, hydrochloride and base]
- effectiveness, in words [1]: remarkably effective
- LDL + VLDL percentile change ([1]; 10.0 mg/kg p.o.): -20.8 percentile change
- Serum cholesterol percentile change ([1]; 10.0 mg/kg p.o.): -7.8 percentile change
- triglyceride percentile change ([1]; 10.0 mg/kg p.o.): -3.1 percentile change
- HDL cholesterol percentile change ([1]; 10.0 mg/kg p.o., * 0.01 P 0.05): +47.7 percentile change
- HDL cholesterol percentile change ([1]; 30.0 mg/kg p.o.): +40.1 percentile change
- Serum cholesterol percentile change ([1]; 30.0 mg/kg p.o., * 0.01 P 0.05): -41.5 percentile change
- LDL + VLDL percentile change ([1]; 30.0 mg/kg p.o., ** P 0.01): -48.5 percentile change
- triglyceride percentile change ([1]; 30.0 mg/kg p.o., ** P 0.01): -47.7 percentile change
- Serum cholesterol percentile change ([1]; 100.0 mg/kg p.o.): -66.3 percentile change
- HDL cholesterol percentile change ([1]; 100.0 mg/kg p.o., ** P 0.01): +56.1 percentile change
- LDL + VLDL percentile change ([1]; 100.0 mg/kg p.o., ** P 0.01): -80.5 percentile change
- triglyceride percentile change ([1]; 100.0 mg/kg p.o., ** P 0.01): -55.8 percentile change
- inhibition of aggregation caused by ADP and adrenaline, in words ([2]; ADP and adrenaline): inhibited by the compound-similarly to Clofibrate--in the second phase
- inhibition at 250 µM ([2]; read-out: inhibition of aggregation induced by arachidonic acid): 100%
- inhibition at 250 µM [2, 6]: 20%
- inhibition at 500 µM [2, 6]: 59%
- inhibition at 1000 µM [2, 6]: 66%
- inhibition at 250 µM [2, 7]: 9%
- inhibition at 500 µM [2, 7]: 16%
- inhibition at 1000 µM [2, 7]: 73%
- inhibition at 250 µM ([2]; arachidonic acid induced, read-out: Aggregation inhibition, Arachidonic acid): 100%
- inhibition at 250 µM [2, 8]: 6%
- inhibition at 500 µM [2, 8]: 16%
- inhibition at 1000 µM [2, 8]: 39%
- IC50 [3]: 24 µM
- LD50 at 336 h [4]: 960 mg/kg
- LD50 at 336 h [5]: > 2000 mg/kg

From US4814329A, “Antihyperlipoproteinemic 5-substituted sulfur-containing benzimidazole derivatives” (Richter Gedeon Vegyeszeti Gyar R.T., priority 1985, dated 1989)
